Test results reported in patent US8410161B2, “Thioxanthone ring system derivatives” (National Defense Medical Center, priority 2010, dated 2013).

What was measured:
K562 = assay: NCI in vitro DTP human cell line screen, K562; type: cell-based; settings: Leukemia, 1.00E−5 Molar
Protocol: (§1) Then, a cell toxicity assay of the cancer lines made by National Cancer Institute will be discussed as follows. The cell toxicity assay is performed by choosing ten compounds (existing certification numbers) from the 59 compounds disclosed in the present invention first.

LOX IMVI = assay: NCI in vitro DTP human cell line screen, LOX IMVI; type: cell-based; settings: Melanoma, 1.00E−5 Molar
Protocol: as §1

MCF7 = assay: NCI in vitro DTP human cell line screen, MCF7; type: cell-based; settings: Breast Cancer, 1.00E−5 Molar
Protocol: as §1

U251 = assay: NCI in vitro DTP human cell line screen, U251; type: cell-based; settings: CNS Cancer, 1.00E−5 Molar
Protocol: as §1

NCI-H322M = assay: NCI in vitro DTP human cell line screen, NCI-H322M; type: cell-based; settings: Non-Small Cell Lung Cancer, 1.00E−5 Molar
Protocol: as §1

SK-MEL-28 = assay: NCI in vitro DTP human cell line screen, SK-MEL-28; type: cell-based; settings: Melanoma, 1.00E−5 Molar
Protocol: as §1

ACHN = assay: NCI in vitro DTP human cell line screen, ACHN; type: cell-based; settings: Renal Cancer, 1.00E−5 Molar
Protocol: as §1

SNB-19 = assay: NCI in vitro DTP human cell line screen, SNB-19; type: cell-based; settings: CNS Cancer, 1.00E−5 Molar
Protocol: as §1

OVCAR-5 = assay: NCI in vitro DTP human cell line screen, OVCAR-5; type: cell-based; settings: Ovarian Cancer, 1.00E−5 Molar
Protocol: as §1

NCI-H226 = assay: NCI in vitro DTP human cell line screen, NCI-H226; type: cell-based; settings: Non-Small Cell Lung Cancer, 1.00E−5 Molar
Protocol: as §1

NCI/ADR-RES = assay: NCI in vitro DTP human cell line screen, NCI/ADR-RES; type: cell-based; settings: Ovarian Cancer, 1.00E−5 Molar
Protocol: as §1

T-47D = assay: NCI in vitro DTP human cell line screen, T-47D; type: cell-based; settings: Breast Cancer, 1.00E−5 Molar
Protocol: as §1

UACC-257 = assay: NCI in vitro DTP human cell line screen, UACC-257; type: cell-based; settings: Melanoma, 1.00E−5 Molar
Protocol: as §1

HCT-116 = assay: NCI in vitro DTP human cell line screen, HCT-116; type: cell-based; settings: Colon Cancer, 1.00E−5 Molar
Protocol: as §1

OVCAR-4 = assay: NCI in vitro DTP human cell line screen, OVCAR-4; type: cell-based; settings: Ovarian Cancer, 1.00E−5 Molar
Protocol: as §1

SF-268 = assay: NCI in vitro DTP human cell line screen, SF-268; type: cell-based; settings: CNS Cancer, 1.00E−5 Molar
Protocol: as §1

KM12 = assay: NCI in vitro DTP human cell line screen, KM12; type: cell-based; settings: Colon Cancer, 1.00E−5 Molar
Protocol: as §1

SNB-75 = assay: NCI in vitro DTP human cell line screen, SNB-75; type: cell-based; settings: CNS Cancer, 1.00E−5 Molar
Protocol: as §1

MOLT-4 = assay: NCI in vitro DTP human cell line screen, MOLT-4; type: cell-based; settings: Leukemia, 1.00E−5 Molar
Protocol: as §1

[1] = MTT assay, HEL299 fibroblast; type: cell-based; settings: human
Description: Please refer to FIG. 4C, various cell viabilities of the HEL299 cell lines can be obtained through the MTT assay while the compounds No. 1˜30 are used to treat HEL299 cell lines, wherein HEL299 cell lines are fibroblast.

SK-MEL-2 = assay: NCI in vitro DTP human cell line screen, SK-MEL-2; type: cell-based; settings: Melanoma, 1.00E−5 Molar
Protocol: as §1

SR = assay: NCI in vitro DTP human cell line screen, SR; type: cell-based; settings: Leukemia, 1.00E−5 Molar
Protocol: as §1

HOP-92 = assay: NCI in vitro DTP human cell line screen, HOP-92; type: cell-based; settings: Non-Small Cell Lung Cancer, 1.00E−5 Molar
Protocol: as §1

UO-31 = assay: NCI in vitro DTP human cell line screen, UO-31; type: cell-based; settings: Renal Cancer, 1.00E−5 Molar
Protocol: as §1

MALME-3M = assay: NCI in vitro DTP human cell line screen, MALME-3M; type: cell-based; settings: Melanoma, 1.00E−5 Molar
Protocol: as §1

SN12C = assay: NCI in vitro DTP human cell line screen, SN12C; type: cell-based; settings: Renal Cancer, 1.00E−5 Molar
Protocol: as §1

HCT-15 = assay: NCI in vitro DTP human cell line screen, HCT-15; type: cell-based; settings: Colon Cancer, 1.00E−5 Molar
Protocol: as §1

UACC-62 = assay: NCI in vitro DTP human cell line screen, UACC-62; type: cell-based; settings: Melanoma, 1.00E−5 Molar
Protocol: as §1

SW-620 = assay: NCI in vitro DTP human cell line screen, SW-620; type: cell-based; settings: Colon Cancer, 1.00E−5 Molar
Protocol: as §1

A control cell lines = assay: MTT assay, A control cell lines (lung cancer cell); type: cell-based
Description: Please refer to Table 1 and FIGS. 4A-4C. According to a MTT assay (Table 1), various cell viabilities of the A control cell lines can be obtained and illustrated in FIG. 4A while the compounds No. 2˜30 are used to treat A control cell lines, wherein A control cell lines are lung cancer cell.

A3 cell lines = assay: MTT assay, A3 cell lines (lung cancer stem cell); type: cell-based
Description: Please to FIG. 4B, various cell viabilities of the A3 cell lines can be obtained through the MTT assay and illustrated in FIG. 4B while the compounds No. 1˜30 are used to treat A3 cell lines, wherein A3 cell lines are lung cancer stem cell.

NCI-H460 = assay: NCI in vitro DTP human cell line screen, NCI-H460; type: cell-based; settings: Non-Small Cell Lung Cancer, 1.00E−5 Molar
Protocol: as §1

60 cancer lines = assay: NCI cell toxicity assay of 60 cancer lines, whole panel summary; type: cell-based, human; settings: mean over all cell lines; 1.00E−5 Molar
Protocol: as §1

CCRF-CEM = assay: NCI in vitro DTP human cell line screen, CCRF-CEM; type: cell-based; settings: Leukemia, 1.00E−5 Molar
Protocol: as §1

SK-MEL-5 = assay: NCI in vitro DTP human cell line screen, SK-MEL-5; type: cell-based; settings: Melanoma, 1.00E−5 Molar
Protocol: as §1

CAKI-1 = assay: NCI in vitro DTP human cell line screen, CAKI-1; type: cell-based; settings: Renal Cancer, 1.00E−5 Molar
Protocol: as §1

NCI-H522 = assay: NCI in vitro DTP human cell line screen, NCI-H522; type: cell-based; settings: Non-Small Cell Lung Cancer, 1.00E−5 Molar
Protocol: as §1

EKVX = assay: NCI in vitro DTP human cell line screen, EKVX; type: cell-based; settings: Non-Small Cell Lung Cancer, 1.00E−5 Molar
Protocol: as §1

MDA-MB-231/ATCC = assay: NCI in vitro DTP human cell line screen, MDA-MB-231/ATCC; type: cell-based; settings: Breast Cancer, 1.00E−5 Molar
Protocol: as §1

786-0 = assay: NCI in vitro DTP human cell line screen, 786-0; type: cell-based; settings: Renal Cancer, 1.00E−5 Molar
Protocol: as §1

M14 = assay: NCI in vitro DTP human cell line screen, M14; type: cell-based; settings: Melanoma, 1.00E−5 Molar
Protocol: as §1

HS 578-T = assay: NCI in vitro DTP human cell line screen, HS 578-T; type: cell-based; settings: Breast Cancer, 1.00E−5 Molar
Protocol: as §1

MDA-MB-468 = assay: NCI in vitro DTP human cell line screen, MDA-MB-468; type: cell-based; settings: Breast Cancer, 1.00E−5 Molar
Protocol: as §1

HT29 = assay: NCI in vitro DTP human cell line screen, HT29; type: cell-based; settings: Colon Cancer, 1.00E−5 Molar
Protocol: as §1

OVCAR-3 = assay: NCI in vitro DTP human cell line screen, OVCAR-3; type: cell-based; settings: Ovarian Cancer, 1.00E−5 Molar
Protocol: as §1

SK-OV-3 = assay: NCI in vitro DTP human cell line screen, SK-OV-3; type: cell-based; settings: Ovarian Cancer, 1.00E−5 Molar
Protocol: as §1

PC-3 = assay: NCI in vitro DTP human cell line screen, PC-3; type: cell-based; settings: Prostate Cancer, 1.00E−5 Molar
Protocol: as §1

RPMI-8226 = assay: NCI in vitro DTP human cell line screen, RPMI-8226; type: cell-based; settings: Leukemia, 1.00E−5 Molar
Protocol: as §1

MDA-MB-435 = assay: NCI in vitro DTP human cell line screen, MDA-MB-435; type: cell-based; settings: Melanoma, 1.00E−5 Molar
Protocol: as §1

RXF 393 = assay: NCI in vitro DTP human cell line screen, RXF 393; type: cell-based; settings: Renal Cancer, 1.00E−5 Molar
Protocol: as §1

TK-10 = assay: NCI in vitro DTP human cell line screen, TK-10; type: cell-based; settings: Renal Cancer, 1.00E−5 Molar
Protocol: as §1

BT-549 = assay: NCI in vitro DTP human cell line screen, BT-549; type: cell-based; settings: Breast Cancer, 1.00E−5 Molar
Protocol: as §1

HL-60(TB) = assay: NCI in vitro DTP human cell line screen, HL-60(TB); type: cell-based; settings: Leukemia, 1.00E−5 Molar
Protocol: as §1

HCC-2998 = assay: NCI in vitro DTP human cell line screen, HCC-2998; type: cell-based; settings: Colon Cancer, 1.00E−5 Molar
Protocol: as §1

OVCAR-8 = assay: NCI in vitro DTP human cell line screen, OVCAR-8; type: cell-based; settings: Ovarian Cancer, 1.00E−5 Molar
Protocol: as §1

DU145 = assay: NCI in vitro DTP human cell line screen, DU145; type: cell-based; settings: Prostate Cancer, 1.00E−5 Molar
Protocol: as §1

SF-539 = assay: NCI in vitro DTP human cell line screen, SF-539; type: cell-based; settings: CNS Cancer, 1.00E−5 Molar
Protocol: as §1

NCI-H23 = assay: NCI in vitro DTP human cell line screen, NCI-H23; type: cell-based; settings: Non-Small Cell Lung Cancer, 1.00E−5 Molar
Protocol: as §1

COLO 205 = assay: NCI in vitro DTP human cell line screen, COLO 205; type: cell-based; settings: Colon Cancer, 1.00E−5 Molar
Protocol: as §1

SF-295 = assay: NCI in vitro DTP human cell line screen, SF-295; type: cell-based; settings: CNS Cancer, 1.00E−5 Molar
Protocol: as §1

IGROV1 = assay: NCI in vitro DTP human cell line screen, IGROV1; type: cell-based; settings: Ovarian Cancer, 1.00E−5 Molar
Protocol: as §1

## O=c1c2ccccc2sc2c(Cl)c(Sc3ccccc3)ccc12 [No. 6, 4-Chloro-3-(phenylthio)-9H-thioxanthen-9-one]
K562
  Growth Percent: 101.65%
LOX IMVI
  Growth Percent: 96.25%
MCF7
  Growth Percent: 82.14%
U251
  Growth Percent: 94.85%
NCI-H322M
  Growth Percent: 96.11%
SK-MEL-28
  Growth Percent: 113.07%
ACHN
  Growth Percent: 94.03%
SNB-19
  Growth Percent: 98.01%
OVCAR-5
  Growth Percent: 104.51%
NCI-H226
  Growth Percent: 85.36%
NCI/ADR-RES
  Growth Percent: 96.88%
T-47D
  Growth Percent: 87.90%
UACC-257
  Growth Percent: 102.79%
HCT-116
  Growth Percent: 98.18%
OVCAR-4
  Growth Percent: 99.56%
SF-268
  Growth Percent: 93.39%
KM12
  Growth Percent: 99.82%
SNB-75
  Growth Percent: 82.75%
MOLT-4
  Growth Percent: 99.77%
[1]
  viability: 107 ± 2.62%
SK-MEL-2
  Growth Percent: 104.71%
SR
  Growth Percent: 91.41%
HOP-92
  Growth Percent: 76.04%
UO-31
  Growth Percent: 73.68%
MALME-3M
  Growth Percent: 92.44%
SN12C
  Growth Percent: 87.55%
HCT-15
  Growth Percent: 92.60%
UACC-62
  Growth Percent: 79.70%
SW-620
  Growth Percent: 96.96%
A control cell lines
  cell viabilities of A control cell lines (MTT assay): 99.7 ± 4.76%
A3 cell lines
  cell viabilities of A3 cell lines (MTT assay): 103 ± 13.0%
NCI-H460
  Growth Percent: 108.87%
60 cancer lines
  Growth Percent, Mean: 96.75%
CCRF-CEM
  Growth Percent: 96.58%
SK-MEL-5
  Growth Percent: 95.50%
CAKI-1
  Growth Percent: 84.00%
NCI-H522
  Growth Percent: 84.11%
EKVX
  Growth Percent: 94.90%
MDA-MB-231/ATCC
  Growth Percent: 93.94%
786-0
  Growth Percent: 111.45%
M14
  Growth Percent: 104.30%
HS 578-T
  Growth Percent: 119.59%
MDA-MB-468
  Growth Percent: 82.54%
HT29
  Growth Percent: 102.56%
OVCAR-3
  Growth Percent: 108.01%
SK-OV-3
  Growth Percent: 96.13%
PC-3
  Growth Percent: 90.81%
RPMI-8226
  Growth Percent: 102.11%
MDA-MB-435
  Growth Percent: 103.22%
RXF 393
  Growth Percent: 110.95%
TK-10
  Growth Percent: 97.85%
BT-549
  Growth Percent: 107.30%
HL-60(TB)
  Growth Percent: 103.53%
HCC-2998
  Growth Percent: 106.34%
OVCAR-8
  Growth Percent: 94.68%
DU145
  Growth Percent: 108.05%
SF-539
  Growth Percent: 104.85%
NCI-H23
  Growth Percent: 84.67%
COLO 205
  Growth Percent: 103.82%
SF-295
  Growth Percent: 100.33%
IGROV1
  Growth Percent: 91.62%
